In patent US20130217664A1, “NOVEL COMPOUNDS USEFUL FOR THE TREATMENT OF DEGENERATIVE AND INFLAMMATORY DISEASES” (priority 2012, published 2013):
Like-named read-outs stand apart in the source and are kept apart here.

Legend:
human TYK2 = molecular target: T1, human TYK2 (Homo sapiens, UniProt P29597); experiment: TYK2 inhibition assay; type: biochemical; conditions: recombinant human TYK2 catalytic domain, polyGT substrate
T1 construct: catalytic domain (amino acids 871-1187; catalog number 08-147); purchased Carna Biosciences 08-147
T1 sequence (P29597 871-1187): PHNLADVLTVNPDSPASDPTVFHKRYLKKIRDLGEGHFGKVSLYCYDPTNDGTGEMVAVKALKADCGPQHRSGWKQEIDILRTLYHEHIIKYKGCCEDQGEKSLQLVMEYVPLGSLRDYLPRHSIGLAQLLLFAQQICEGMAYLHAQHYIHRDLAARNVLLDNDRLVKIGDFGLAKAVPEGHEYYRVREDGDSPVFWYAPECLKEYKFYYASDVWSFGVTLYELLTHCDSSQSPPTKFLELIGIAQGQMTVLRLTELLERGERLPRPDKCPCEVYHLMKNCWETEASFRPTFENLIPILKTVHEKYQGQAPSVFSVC
Method in brief: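 Radiometric kinase reaction run 90 min at 30 °C, stopped with phosphoric acid, washed and scintillation-counted.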

human JAK3 = molecular target: T2, human JAK3 (Homo sapiens, UniProt P52333); experiment: JAK3 inhibition assay; type: biochemical; conditions: recombinant human JAK3 catalytic domain; polyGT substrate
T2 construct: catalytic domain (amino acids 781-1124; catalog number PV3855); purchased Invitrogen PV3855
Method in brief: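 Radiometric kinase assay: 0.5 ng JAK3 with 2.5 μg polyGT in Tris pH 7.5/MgCl2 buffer, 1 μM ATP plus 0.25 μCi 33P-γ-ATP, 1% DMSO, 45 min at 30 °C, stopped with phosphoric acid.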

human JAK1 = molecular target: T3, human JAK1 (Homo sapiens, UniProt P23458); experiment: JAK1 inhibition assay (polyGT substrate / Ulight-JAK1 peptide); type: biochemical; conditions: recombinant human JAK1 catalytic domain; polyGT or Ulight-JAK1 peptide assay
T3 construct: catalytic domain, amino acids 866-1154; catalog number PV4774; purchased Invitrogen PV4774
Method in brief: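 Signal scaled between vehicle and 10 μM staurosporine. Radiometric polyGT reactions ran 45 min at 30 °C, counted after phosphoric-acid stop. Ulight peptide reactions ran 60 min at room temperature, fluorescence read after adding Eu-PT66 detection mix with EDTA.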

human JAK2 = molecular target: T4, human JAK2 (Homo sapiens, UniProt O60674); experiment: JAK2 inhibition assay (polyGT substrate / Ulight-JAK1 peptide); type: biochemical; conditions: recombinant human JAK2 catalytic domain; polyGT or Ulight-JAK1 peptide assay
T4 construct: catalytic domain (amino acids 808-1132; catalog number PV4210); GST; purchased Invitrogen PV4210
Method in brief: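 Two JAK2 formats: a ^33P-ATP polyGT assay (1 μM cold ATP, 90 min, 30° C., cpm read-out) and a Ulight-JAK1 peptide assay read by Europium-anti-phosphotyrosine fluorescence after 60 min at room temperature.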

CTLL-2 cell line = experiment: CTLL2 viability assay; type: cell-based; conditions: Mus musculus, IL-2 dependent CTLL2 viability, 24 h, ATP-lite
Description: The protocol describes the methods to analyse the activity of compounds on their ability to sustain the IL2-dependent viability of CTLL2.
Final DMSO concentration was 0.1%.

[1] = system: pSTAT1(2)-luciferase reporter in HeLa cells triggered with human OSM; experiment: JAK-STAT signalling assay; type: cell-based; conditions: Homo sapiens, HeLa, read-out: JAK-STAT IC50
Method in brief: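 Compound added 60 min before 33 ng/mL (final) human OSM; after overnight stimulation at 37 °C, luciferase signal from a transiently transfected pSTAT1(2) reporter in HeLa cells was read, with LacZ as internal control. EC50 derived from percent-inhibition dose-response curves.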

[2] = HeLa cells, pSTAT1(2)-luciferase reporter, human OSM 33 ng/mL

T4 sequence (O60674 808-1132): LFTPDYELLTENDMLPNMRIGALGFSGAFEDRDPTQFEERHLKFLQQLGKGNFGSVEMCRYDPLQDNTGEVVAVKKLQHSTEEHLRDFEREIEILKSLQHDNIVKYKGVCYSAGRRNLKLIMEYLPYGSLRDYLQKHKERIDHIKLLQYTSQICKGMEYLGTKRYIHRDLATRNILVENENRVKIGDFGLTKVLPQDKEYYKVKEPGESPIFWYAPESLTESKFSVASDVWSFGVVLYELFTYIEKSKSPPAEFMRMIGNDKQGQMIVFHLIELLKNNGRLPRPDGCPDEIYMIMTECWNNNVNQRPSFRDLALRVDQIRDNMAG
T2 sequence (P52333 781-1124): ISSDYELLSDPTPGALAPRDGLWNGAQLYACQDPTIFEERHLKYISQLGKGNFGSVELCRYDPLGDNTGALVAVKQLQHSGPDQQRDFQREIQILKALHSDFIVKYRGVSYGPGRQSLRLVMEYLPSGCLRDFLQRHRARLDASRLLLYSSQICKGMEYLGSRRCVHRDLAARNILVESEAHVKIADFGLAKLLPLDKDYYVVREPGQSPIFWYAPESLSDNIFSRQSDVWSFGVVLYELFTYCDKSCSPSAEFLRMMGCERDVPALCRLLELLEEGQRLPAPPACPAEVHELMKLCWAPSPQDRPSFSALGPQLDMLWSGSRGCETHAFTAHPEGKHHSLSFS
T3 sequence (P23458 866-1154): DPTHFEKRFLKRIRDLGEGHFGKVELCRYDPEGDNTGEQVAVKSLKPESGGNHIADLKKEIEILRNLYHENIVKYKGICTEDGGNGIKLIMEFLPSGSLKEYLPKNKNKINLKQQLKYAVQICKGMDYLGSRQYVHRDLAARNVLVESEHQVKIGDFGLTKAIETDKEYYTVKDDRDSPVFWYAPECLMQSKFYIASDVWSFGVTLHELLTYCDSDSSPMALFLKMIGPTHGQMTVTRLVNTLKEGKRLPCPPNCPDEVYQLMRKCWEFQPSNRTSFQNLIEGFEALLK

Structure (SMILES)	IC50 (human TYK2)	IC50 (human JAK3)	IC50 (human JAK1)	IC50 (human JAK2)	IC50 [1, 2]	IC50 (CTLL-2 cell line)	IC50 [1]
CCc1cc(C(C#N)N2CCC(O)CC2)ccc1N(C)c1cc2c(cn1)ncn2C (centres unmarked) [Compound 447, {3-Ethyl-4-[methyl-(1-methyl-1H-imidazo[4,5-c]pyridin-6-yl)-amino]-phenyl}-(4-hydroxy-piperidin-1-yl)-acetonitrile]	0.01 to 100 nM	101 to 500 nM	0.01 to 100 nM	0.01 to 100 nM	–	> 1000 nM	–
CCc1cc(C(C#N)N2CCC(CO)CC2)ccc1N(C)c1cc2c(cn1)ncn2C (centres unmarked) [Compound 437, {3-Ethyl-4-[methyl-(1-methyl-1H-imidazo[4,5-c]pyridin-6-yl)-amino]-phenyl}-(4-hydroxymethyl-piperidin-1-yl)-acetonitrile]	0.01 to 100 nM	101 to 500 nM	0.01 to 100 nM	0.01 to 100 nM	–	> 1000 nM	–
CN(c1cc2c(cn1)ncn2C)c1ccc(C2CN(S(=O)(=O)N3CCCCC3)C2)cc1OC(F)F [Compound 372, {2-Difluoromethoxy-4-[1-(piperidine-1-sulfonyl)-azetidin-3-yl]-phenyl}-methyl-(1-methyl-1H-imidazo[4,5-c]pyridin-6-yl)-amine]	101 to 500 nM	501 to 1000 nM	0.01 to 100 nM	101 to 500 nM	–	> 1000 nM	–
CCc1cc(C(C#N)N2CC[C@@H](OC)C2)ccc1N(C)c1cc2c(cn1)ncn2C (stereo partly drawn) [Compound 448, {3-Ethyl-4-[methyl-(1-methyl-1H-imidazo[4,5-c]pyridin-6-yl)-amino]-phenyl}-((R)-3-methoxy-pyrrolidin-1-yl)-acetonitrile]	0.01 to 100 nM	101 to 500 nM	0.01 to 100 nM	0.01 to 100 nM	–	> 1000 nM	–
CCc1cc(CNS(=O)(=O)N2CCC(F)(F)C2)ccc1N(C)c1cc2c(cn1)ncn2C [Compound 425, 3,3-Difluoro-pyrrolidine-1-sulfonic acid 3-ethyl-4-[methyl-(1-methyl-1H-imidazo[4,5-c]pyridin-6-yl)-amino]-benzylamide]	101 to 500 nM	101 to 500 nM	0.01 to 100 nM	0.01 to 100 nM	–	> 1000 nM	–
CCc1cc(C(C#N)N2CCC(S(C)(=O)=O)CC2)ccc1N(C)c1cc2c(cn1)ncn2C (centres unmarked) [Compound 452, {3-Ethyl-4-[methyl-(1-methyl-1H-imidazo[4,5-c]pyridin-6-yl)-amino]-phenyl}-(4-methanesulfonyl-piperidin-1-yl)-acetonitrile]	0.01 to 100 nM	0.01 to 100 nM	0.01 to 100 nM	0.01 to 100 nM	–	501 to 1000 nM	–
CCc1cc(-c2cncc(C#N)c2)ccc1N(C)c1cc2c(cn1)ncn2C [Compound 189, 5-(3-ethyl-4-(methyl(1-methyl-1H-imidazo[4,5-c]pyridin-6-yl)amino)phenyl)nicotino-nitrile]	101 to 500 nM	> 1000 nM	0.01 to 100 nM	–	> 1000 nM	–	–
CCc1cc(-c2cnn(Cc3cccc(OC)c3)c2)ccc1N(C)c1cc2c(cn1)ncn2C [Compound 236, N-(2-ethyl-4-(1-(3-methoxybenzyl)-1H-pyrazol-4-yl)phenyl)-N,1-dimethyl-1H-imidazo[4,5-c]pyridin-6-amine]	0.01 to 100 nM	0.01 to 100 nM	0.01 to 100 nM	–	1 to 500 nM	–	–
CCc1cc(C2=CCN(C(=O)OCC#N)CC2)ccc1N(C)c1cc2c(cn1)ncn2C [Compound 216, Cyanomethyl 4-(3-ethyl-4-(methyl(1-methyl-1H-imidazo[4,5-c]pyridin-6-yl)amino)phenyl)-5,6-dihydropyridine-1(2H)-carboxylate]	0.01 to 100 nM	101 to 500 nM	0.01 to 100 nM	–	–	–	> 1000 nM
CCc1cc(-c2cnc(OC3COC3)nc2)ccc1N(C)c1cc2c(cn1)ncn2C [Compound 212, N-(2-Ethyl-4-(2-(oxetan-3-yloxy)pyrimidin-5-yl)phenyl)-N,1-dimethyl-1H-imidazo[4,5-c]pyridin-6-amine]	101 to 500 nM	> 1000 nM	0.01 to 100 nM	–	> 1000 nM	–	–
CCc1cc(OCC#N)ccc1N(C)c1cc2c(cn1)ncn2C [Compound 295, 2-(3-ethyl-4-(methyl(1-methyl-1H-imidazo[4,5-c]pyridin-6-yl)amino)phenoxy)acetonitrile]	0.01 to 100 nM	101 to 500 nM	0.01 to 100 nM	–	–	–	1 to 500 nM

More lines, main results first:

IC50 (human TYK2)	IC50 (human JAK3)	IC50 (human JAK1)	IC50 (human JAK2)	IC50 [1, 2]	Structure (SMILES)	IC50 (CTLL-2 cell line)	IC50 [1]
> 1000 nM	> 1000 nM	101 to 500 nM	> 1000 nM	–	CCc1cc(CN2CC3(COC3)C2)ccc1N(C)c1cc2c(cn1)ncn2C [Compound 419, [2-Ethyl-4-(2-oxa-6-aza-spiro[3.3]hept-6-ylmethyl)-phenyl]-methyl-(1-methyl-1H-imidazo[4,5-c]pyridin-6-yl)-amine]	> 1000 nM	–
501 to 1000 nM	> 1000 nM	0.01 to 100 nM	501 to 1000 nM	–	CCc1cc(CN2CCC(F)(F)CC2)ccc1N(C)c1cc2c(cn1)ncn2C [Compound 422, [4-(4,4-Difluoro-piperidin-1-ylmethyl)-2-ethyl-phenyl]-methyl-(1-methyl-1H-imidazo[4,5-c]pyridin-6-yl)-amine]	> 1000 nM	–
101 to 500 nM	> 1000 nM	0.01 to 100 nM	101 to 500 nM	–	CCc1cc(CN2CCC(S(C)(=O)=O)C2)ccc1N(C)c1cc2c(cn1)ncn2C (centres unmarked) [Compound 420, [2-Ethyl-4-(3-methanesulfonyl-pyrrolidin-1-ylmethyl)-phenyl]-methyl-(1-methyl-1H-imidazo[4,5-c]pyridin-6-yl)-amine]	> 1000 nM	–
0.01 to 100 nM	101 to 500 nM	0.01 to 100 nM	–	1 to 500 nM	CCc1cc(C2=CCN(C(C)=O)CC2)ccc1N(C)c1cc2c(cn1)ncn2C [Compound 168, 1-(4-(3-ethyl-4-(methyl(1-methyl-1H-imidazo[4,5-c]pyridin-6-yl)amino)phenyl)-5,6-dihydropyridin-1(2H)-yl)ethanone]	–	–
0.01 to 100 nM	101 to 500 nM	0.01 to 100 nM	–	501 to 1000 nM	CCc1cc(C2=CCN(C(=O)CC(C)(C)O)CC2)ccc1N(C)c1cc2c(cn1)ncn2C [Compound 200, 1-(4-(3-ethyl-4-(methyl(1-methyl-1H-imidazo[4,5-c]pyridin-6-yl)amino)phenyl)-5,6-dihydropyridin-1(2H)-yl)-3-hydroxy-3-methylbutan-1-one]	–	–
101 to 500 nM	501 to 1000 nM	0.01 to 100 nM	–	> 1000 nM	CCc1cc(C(O)C(F)(F)F)ccc1N(C)c1cc2c(cn1)ncn2C (centres unmarked) [Compound 159, 1-(3-Ethyl-4-(methyl(1-methyl-1H-imidazo[4,5-c]pyridin-6-yl)amino)phenyl)-2,2,2-trifluoroethanol]	–	–
0.01 to 100 nM	501 to 1000 nM	0.01 to 100 nM	–	501 to 1000 nM	CCCn1cc(-c2ccc(N(C)c3cc4c(cn3)ncn4C)c(CC)c2)cn1 [Compound 240, N-(2-ethyl-4-(1-propyl-1H-pyrazol-4-yl)phenyl)-N,1-dimethyl-1H-imidazo[4,5-c]pyridin-6-amine]	–	–
0.01 to 100 nM	501 to 1000 nM	0.01 to 100 nM	–	501 to 1000 nM	CCOc1ccc(N(C)c2cc3c(cn2)ncn3C)c(CC)c1 [Compound 272, N-(4-ethoxy-2-ethylphenyl)-N,1-dimethyl-1H-imidazo[4,5-c]pyridin-6-amine]	–	–
101 to 500 nM	> 1000 nM	0.01 to 100 nM	–	> 1000 nM	CCc1cc(-c2cnn(CC(=O)C(C)(C)C)c2)ccc1N(C)c1cc2c(cn1)ncn2C [Compound 221, 1-(4-(3-ethyl-4-(methyl(1-methyl-1H-imidazo[4,5-c]pyridin-6-yl)amino)phenyl)-1H-pyrazol-1-yl)-3,3-dimethylbutan-2-one]	–	–
